Measured values: article PMC9403976, “Elucidating the path to Plasmodium prolyl-tRNA synthetase inhibitors that overcome halofuginone resistance” (Nature Communications, 2022)
“And” between values parts separate entries of the source, which are not always exact repeats. Equal entries are not always repeated. Where two headings read alike, the source gives them in different places.

Key:
[1] = test system: HFGR-I P. falciparum (elevated proline homeostasis and PfcProRS^L482H); assay: P. falciparum ABS growth assay, SYBR Green, 72 h, HFGR-I parasites; type: cell-based, Plasmodium falciparum; details: for EC50: Plasmodium falciparum, DD2, read-out: Dd2 (EC50 [nM]) HFGR1 mean
Excerpt: (§1) Parasites were maintained under standard culture conditions as described previously[56],[57]. […] The P. falciparum Dd2 cell lines used in this study (Dd2-2D4, halofuginone-induced, and HFGR-I) have previously undergone whole genome sequencing in our labs. They were also routinely assayed and EC50 values determined using the ABS growth assay (see below) with a panel of standard antimalarial compounds, including halofuginone which has differential activity for the three Dd2 lines used in these experiments. Data were cross-referenced for consistency with literature reported values and data previously acquired in the lab.
(§2) This assay was performed as previously described. In short, P. falciparum erythrocytic-stage parasites at 1% parasitemia and 1% hematocrit in RPMI + 0.5% Albumax were seeded at 40 μL/well in 384-well plates with test compounds in triplicate, dose-response format with 10 μM dihydroartemisinin as a kill-control and blank (no compound) wells as a growth-control. […] After 72 h, growth was quantified by measuring fluorescence (Molecular Devices SpectraMax iD5) following SYBR Green 1 staining. Data were analyzed in Excel and plotted in PRISM (V. 8.4.3–9.1.0, GraphPad).

[2] = test system: P. falciparum Dd2-2D4; assay: P. falciparum asexual blood stage (ABS) growth assay, SYBR Green, 72 h, wild-type parasites; type: cell-based, Plasmodium falciparum; details: for EC50: Plasmodium falciparum, DD2
[3] = test system: halofuginone-induced P. falciparum (elevated proline homeostasis); assay: P. falciparum ABS growth assay, SYBR Green, 72 h, halofuginone-induced parasites; type: cell-based, Plasmodium falciparum; details: for EC50: Plasmodium falciparum, DD2
Excerpt: as §1, §2

[4] = molecular target: HsProRS (Homo sapiens, UniProt P07814); assay: TR-FRET ligand displacement assay with tracer MAT379 (CoraFluor-1-Halo and anti-His6 antibody formats); type: binding; set-up: made in house; host or cells: E. coli SoluBL-21
[5] = molecular target: T1, PfcProRS (Plasmodium falciparum, UniProt Q8I5R7); type: binding; details: for Normalized response, dose-response replicates (SI Fig 14): replicates 1-3; for PfcProRS -- best Kd: SI Fig 16a, values on -log scale
T1 construct: made in house; host or cells: E. coli SoluBL-21

[6] = SI Fig 16b, values on -log scale, read-out: ABS - Dd2-2D4 (converted)
[7] = HsProRS (KD [nM]) + 100 μM proline mean, + 100 μM proline

T1 sequence (Q8I5R7 249-746): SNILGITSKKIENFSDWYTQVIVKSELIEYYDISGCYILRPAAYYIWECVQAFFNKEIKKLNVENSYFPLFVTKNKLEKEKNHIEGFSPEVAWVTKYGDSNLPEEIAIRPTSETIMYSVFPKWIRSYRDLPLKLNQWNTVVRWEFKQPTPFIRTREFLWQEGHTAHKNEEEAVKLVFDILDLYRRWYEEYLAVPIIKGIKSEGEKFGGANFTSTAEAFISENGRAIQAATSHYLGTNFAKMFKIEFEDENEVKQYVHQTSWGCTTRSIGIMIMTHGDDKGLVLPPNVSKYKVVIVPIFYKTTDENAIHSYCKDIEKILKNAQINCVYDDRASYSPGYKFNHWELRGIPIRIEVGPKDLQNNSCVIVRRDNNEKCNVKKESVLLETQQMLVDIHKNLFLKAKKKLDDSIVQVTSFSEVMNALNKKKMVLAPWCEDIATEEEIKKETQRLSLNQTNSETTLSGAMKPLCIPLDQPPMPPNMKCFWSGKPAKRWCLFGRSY
Sequence of HsProRS (P07814 996-1512): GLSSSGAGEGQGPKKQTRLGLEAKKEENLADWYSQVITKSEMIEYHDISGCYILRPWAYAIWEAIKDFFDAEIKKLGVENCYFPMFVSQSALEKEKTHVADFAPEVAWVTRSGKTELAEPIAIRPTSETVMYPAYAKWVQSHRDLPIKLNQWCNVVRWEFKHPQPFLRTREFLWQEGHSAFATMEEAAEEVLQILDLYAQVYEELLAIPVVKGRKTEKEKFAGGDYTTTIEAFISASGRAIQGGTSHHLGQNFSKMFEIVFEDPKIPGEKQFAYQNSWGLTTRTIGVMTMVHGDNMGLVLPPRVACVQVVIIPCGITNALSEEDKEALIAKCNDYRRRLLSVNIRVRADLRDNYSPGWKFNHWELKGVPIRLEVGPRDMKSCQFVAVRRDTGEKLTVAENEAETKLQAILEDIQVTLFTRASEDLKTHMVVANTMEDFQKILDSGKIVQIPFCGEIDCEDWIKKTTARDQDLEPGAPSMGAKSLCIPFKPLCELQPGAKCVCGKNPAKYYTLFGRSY

Compound	EC50 [1]	EC50 [2, 6]	Kd [4, 7]	Normalized response, dose-response replicates (SI Fig 14) ([5]; Log[inhibitor] (M) -5.000)	Normalized response, dose-response replicates (SI Fig 14) ([5]; Log[inhibitor] (M) -5.301)	Normalized response, dose-response replicates (SI Fig 14) ([5]; Log[inhibitor] (M) -5.601)	Normalized response, dose-response replicates (SI Fig 14) ([5]; Log[inhibitor] (M) -5.904)	Normalized response, dose-response replicates (SI Fig 14) ([5]; Log[inhibitor] (M) -6.208)	Normalized response, dose-response replicates (SI Fig 14) ([5]; Log[inhibitor] (M) -6.509)	Normalized response, dose-response replicates (SI Fig 14) ([5]; Log[inhibitor] (M) -6.796)	Normalized response, dose-response replicates (SI Fig 14) ([5]; Log[inhibitor] (M) -7.108)	Normalized response, dose-response replicates (SI Fig 14) ([5]; Log[inhibitor] (M) -7.409)	Normalized response, dose-response replicates (SI Fig 14) ([5]; Log[inhibitor] (M) -7.710)	Normalized response, dose-response replicates (SI Fig 14) ([5]; Log[inhibitor] (M) -8.000)	Normalized response, dose-response replicates (SI Fig 14) ([5]; Log[inhibitor] (M) -8.301)	Normalized response, dose-response replicates (SI Fig 14) ([5]; Log[inhibitor] (M) -8.602)	Normalized response, dose-response replicates (SI Fig 14) ([5]; Log[inhibitor] (M) -9.000)	Normalized response, dose-response replicates (SI Fig 14) ([5]; Log[inhibitor] (M) -9.301)	PfcProRS -- best Kd [5]	further results
Nc1ncnc2c1ncn2[C@@H]1O[C@H](COS(=O)(=O)NC(=O)[C@H]2CCCN2)[C@@H](O)[C@H]1O [D-ProSA, reference compound]	2430 nM	2550 nM																		EC50 ([2]; read-out: Dd2 (EC50 [nM]) wildtype (Dd2-2D4) mean): 2550 nM; EC50 ([3]; read-out: Dd2 (EC50 [nM]) halofuginone-induced mean): 2730 nM
CC(C)N(C(=O)Nc1nccnc1C(=O)NC1Cc2ccccc2C1)C(C)C [MAT107 (5)]	6850 nM		1020 nM																	% signal at 10 μM, wildtype (Dd2-2D4) ([2]; wildtype (Dd2-2D4), 10 μM): 80.9%; IC50 [4]: > 10 µM; HsProRS % signal at 10 μM ([4]; no added proline/ATP (-), 10 μM): 63.6%; EC50 ([3]; halofuginone-induced, bound given in μM, read-out: Dd2 EC50 halofuginone-induced, bound): > 10000 nM; % signal at 10 μM, halofuginone-induced ([3]; halofuginone-induced, 10 μM): 58.7%
CC(C)(C)OC(=O)NCCCCCC(=O)NC1CCN(C(=O)Nc2nccnc2C(=O)NC2Cc3ccccc3C2)CC1 [compound 41]		2110 nM	561 nM	2.54E-01 and 1.79E-01 and 1.37E-01	2.59E-01 and 1.90E-01 and 1.97E-01	2.56E-01 and 2.59E-01 and 2.72E-01	5.14E-01 and 5.00E-01 and 4.61E-01	7.49E-01 and 5.18E-01 and 5.00E-01	8.38E-01 and 7.48E-01 and 7.12E-01	9.37E-01 and 8.75E-01 and 9.23E-01	9.89E-01 and 8.01E-01 and 8.98E-01	9.10E-01 and 9.82E-01 and 9.58E-01	9.67E-01 and 1.08E+00 and 8.83E-01	9.89E-01 and 1.01E+00 and 9.34E-01	1.15E+00 and 9.52E-01 and 9.87E-01	1.13E+00 and 1.02E+00 and 1.04E+00	9.78E-01 and 9.94E-01 and 1.01E+00	1.02E+00 and 9.71E-01 and 8.87E-01	6.740	dose-response value, Replicates 1-3 (SI Fig 2f) ([1]; Log[inhibitor] (M) -6.638): 97; Kd ([4]; HsProRS - best Kd, SI Fig 16a, values on -log scale): 139 nM
NCCCCCC(=O)NC1CCN(C(=O)Nc2nccnc2C(=O)NC2Cc3ccccc3C2)CC1 [compound 42]		3120 nM	780 nM	2.49E-01 and 1.76E-01 and 2.08E-01	3.00E-01 and 2.27E-01 and 1.95E-01	3.22E-01 and 3.31E-01 and 4.26E-01	5.98E-01 and 5.09E-01 and 6.07E-01	6.69E-01 and 7.19E-01 and 7.06E-01	8.50E-01 and 8.42E-01 and 7.76E-01	8.57E-01 and 7.95E-01 and 8.50E-01	9.38E-01 and 9.24E-01 and 9.33E-01	8.48E-01 and 9.09E-01 and 8.32E-01	1.01E+00 and 1.02E+00 and 9.56E-01	9.91E-01 and 1.13E+00 and 9.71E-01	9.70E-01 and 1.02E+00 and 1.00E+00	1.01E+00 and 9.47E-01 and 9.02E-01	1.03E+00 and 8.54E-01 and 9.74E-01	1.02E+00 and 9.76E-01 and 9.47E-01	6.530	dose-response value, Replicates 1-3 (SI Fig 2f) ([1]; Log[inhibitor] (M) -8.699): 97; Kd ([4]; HsProRS (KD [nM]) mean, no added proline/ATP (-)): 674 nM
